This is an account of results in patent US5589510A, “Method for inhibiting retroviral infection by administering a naphthalenesulfonic acid compound” (priority 1995, dated 1996).

One series is described as follows: LD50, intravenous, mice. In kind it is in vivo. The note with it: mouse, in vivo, female mice, mortalities within 1 week. On the procedure: The test material was administered intravenously to 5 female mice in five increasing doses. Mortalities were recorded within 1 week, and the LD50 was determined with the aid of statistical calculations.
The subject of series [1] is TA98, TA1535, TA1537, TA1538, TA100 and W2P2uvr. In words: Ames Test (in the presence of S9). In kind it is cell-based, Salmonella typhimurium. Conditions: for Ames Test, specific mutagenic activity: the higher the value, the higher the mutagenicity. The text has this: Six Salmonella typhimuriumstrai strains, TA98, TA1535, TA1537, TA1538, TA100 and W2P2uvr were used in this experiment.

For the next series, the system named is HIV-1 RF. The series can be described thus: Antiviral assay, Experimental Protocol I (compound added after infection). Type of series: cell-based. The note with it: Human immunodeficiency virus 1, 240 h, p24 ELISA, read-out: % Inhibition (after day 10); for inhibition at 1.25 µg/mL: 1.25 μg/ml; for inhibition at 2.5 µg/mL: 2.5 μg/ml; for inhibition at 5 µg/mL: 5 μg/ml; for inhibition at 0.6 µg/mL: 0.6 μg/ml. On the procedure: HIV-1 infectivity studies were conducted in CEM, H9, MT2 cells and peripheral blood mononuclear cells (PBMC). CEM, H9 and MT2 were grown in RPMI1640 medium, 10% heat-inactivated fetal bovine serum (FBS). PBMCs were stimulated with 4 μg/ml PHA for 48 hours in RPMI1640, 10% FBS before HIV-1 infection. After HIV-1 infection, PBMCs were maintained in RPMI 1640, 10% FBS and 10 10 units/ml IL-2. The major HIV-1 isolates used were MN, IIIB, SF2, AZT-sensitive A018 and AZT-resistant A018 provided by NIH AIDS research and reference reagent program. Two major antiviral assays were developed to determine the antiviral activities of the compounds of this invention (as inhibitors).
I. The cells were infected with HIV-1 RF or IIIB at an infectivity multiplicity (moi) of 0.001 in the absence of a compound of this invention for one hour. HIV-1 infected cells were washed once with PBS, resuspended in RPMI1640, 10% FBS medium and distributed in 24-well culture dishes (5×10^5 cells per well) in the presence of a compound of this invention as inhibitor. […]

Where two headings read alike, the source gives them in different places.

The term LD50 denotes the dose expected to kill half of the subjects tested. Low values mean a more toxic substance, high ones a less toxic substance. What is called inhibition is the relative decrease from the control value, in per cent. In “LD50, intravenous, mice”, `COc1cc(N=Nc2c(S(=O)(=O)O)cc3cc(S(=O)(=O)O)cc(NC(=O)c4cccc(Cl)c4Cl)c3c2O)c(OC)cc1N=Nc1c(S(=O)(=O)O)cc2cc(S(=O)(=O)O)cc(NC(=O)Cc3ccccc3)c2c1O` [Compound 2] came in with an LD50 at 168 h of 150 mg/kg. The “Ames Test result” value in series [1] was “Negative”. In the series on HIV-1 RF (10% FCS), the inhibition at 1.25 µg/mL stood at 60%, the inhibition at 2.5 µg/mL worked out at 73% and the inhibition at 5 µg/mL was found to be 98%.
Compound `COc1cc(N=Nc2c(S(=O)(=O)O)cc3cc(S(=O)(=O)O)cc(NC(=O)c4cccc(Cl)c4Cl)c3c2O)c(OC)cc1N=Nc1c(S(=O)(=O)O)cc2cc(S(=O)(=O)O)cc(NC(=O)c3cccc(Cl)c3Cl)c2c1O` [Compound 8] displayed an LD50 at 168 h in the series “LD50, intravenous, mice” of 160 mg/kg. Besides, the “Ames Test result” value in series [1] is reported as “Negative”. In addition, in the series with HIV-1 RF (10% FCS), the inhibition at 0.6 µg/mL was 87%, the inhibition at 1.25 µg/mL was determined as 99%, the inhibition at 2.5 µg/mL turned out to be 99% and the inhibition at 5 µg/mL was 99%. Moreover, in the series on HIV-1 RF (50% Human Serum), the inhibition at 1.25 µg/mL was determined as 0%, the inhibition at 2.5 µg/mL was 0% and the inhibition at 5 µg/mL worked out at 95%.
In the series “LD50, intravenous, mice”, `COc1cc(N=Nc2c(S(=O)(=O)O)cc3cc(S(=O)(=O)O)cc(NC(=O)c4cccc(Cl)c4Cl)c3c2O)c(OC)cc1N=Nc1c(S(=O)(=O)O)cc2cc(S(=O)(=O)O)cc(NC(=O)c3cc(Cl)ccc3Cl)c2c1O` [Compound 9] returned an LD50 at 168 h of 150 mg/kg. For the same compound, the “Ames Test result” value in series [1] is “Negative”. In the series on HIV-1 RF (10% FCS), the inhibition at 0.6 µg/mL came to 63%, the inhibition at 1.25 µg/mL is 99%, the inhibition at 2.5 µg/mL turned out to be 99% and the inhibition at 5 µg/mL worked out at 100%. In the series with HIV-1 RF (50% Human Serum), the inhibition at 0.6 µg/mL was found to be 0%, the inhibition at 1.25 µg/mL is 0%, the inhibition at 2.5 µg/mL amounted to 16% and the inhibition at 5 µg/mL was 90%.
Regarding `COc1cc(N=Nc2c(S(=O)(=O)O)cc3cc(S(=O)(=O)O)cc(NC(=O)c4cccc5ccccc45)c3c2O)c(OC)cc1N=Nc1c(S(=O)(=O)O)cc2cc(S(=O)(=O)O)cc(NC(=O)c3ccc(C(F)(F)F)cc3)c2c1O` [Compound 19], the LD50 at 168 h in “LD50, intravenous, mice” was 140 mg/kg. For the same compound, the “Ames Test result” value in series [1] is recorded as “Negative”.
`COc1cc(N=Nc2c(S(=O)(=O)O)cc3cc(S(=O)(=O)O)cc(NC(=O)c4ccc(Cl)cc4Cl)c3c2O)c(OC)cc1N=Nc1c(S(=O)(=O)O)cc2cc(S(=O)(=O)O)cc(NC(=O)Cc3cccc4ccccc34)c2c1O` [Compound 20] had an LD50 at 168 h in “LD50, intravenous, mice” of 150 mg/kg. In series [1], the “Ames Test result” value is recorded as “Positive” and the “Ames Test, specific mutagenic activity” value is 0.08 colony no/μg.
The compound `COc1cc(N=Nc2c(S(=O)(=O)O)cc3cc(S(=O)(=O)O)cc(NC(=O)c4cccc([N+](=O)[O-])c4)c3c2O)c(OC)cc1N=Nc1c(S(=O)(=O)O)cc2cc(S(=O)(=O)O)cc(NC(=O)c3ccccc3)c2c1O` [Compound 22] showed an LD50 at 168 h in “LD50, intravenous, mice” of 140 mg/kg. In series [1], the “Ames Test result” value is “Positive” and the “Ames Test, specific mutagenic activity” value worked out at 0.4 colony no/μg.
On to `COc1cc(N=Nc2c(S(=O)(=O)O)cc3cc(S(=O)(=O)O)cc(NC(=O)c4ccc(C)cc4)c3c2O)c(OC)cc1N=Nc1c(S(=O)(=O)O)cc2cc(S(=O)(=O)O)cc(NC(=O)c3ccccc3)c2c1O` [Compound 23], for which, in the series “LD50, intravenous, mice”, the LD50 at 168 h came out at 130 mg/kg. In addition, the “Ames Test result” value in series [1] was “Negative”.
For `COc1cc(N=Nc2c(S(=O)(=O)O)cc3cc(S(=O)(=O)O)cc(NC(=O)c4ccccc4)c3c2O)c(OC)cc1N=Nc1c(S(=O)(=O)O)cc2cc(S(=O)(=O)O)cc(NC(=O)Nc3ccc(F)cc3)c2c1O` [Compound 24] the same measures were 140 mg/kg and “Negative”.
Compound `COc1cc(N=Nc2c(S(=O)(=O)O)cc3cc(S(=O)(=O)O)cc(NC(=O)c4ccccc4OC)c3c2O)c(OC)cc1N=Nc1c(S(=O)(=O)O)cc2cc(S(=O)(=O)O)cc(NC(=O)c3ccccc3)c2c1O` [Compound 25] showed an LD50 at 168 h in “LD50, intravenous, mice” of 160 mg/kg. For the same compound, the “Ames Test result” value in series [1] is “Negative”.
For `COc1cc(N=Nc2c(S(=O)(=O)O)cc3cc(S(=O)(=O)O)cc(NC(=O)c4ccc(C#N)cc4)c3c2O)c(OC)cc1N=Nc1c(S(=O)(=O)O)cc2cc(S(=O)(=O)O)cc(NC(=O)c3ccccc3)c2c1O` [Compound 26] the same measures were 150 mg/kg and “Negative”.
Take `O=C(Nc1cc(S(=O)(=O)O)cc2cc(S(=O)(=O)O)c(N=Nc3ccc(N=Nc4c(S(=O)(=O)O)cc5cc(S(=O)(=O)O)cc(NC(=O)c6cccc(Cl)c6Cl)c5c4O)cc3)c(O)c12)c1ccc(Cl)cc1Cl` [Compound 29]: the “Ames Test result” value in series [1] is on record as “Negative”.
On the same count and under the same terms, the value for `O=C(Nc1cc(S(=O)(=O)O)cc2cc(S(=O)(=O)O)c(N=Nc3ccc(N=Nc4c(S(=O)(=O)O)cc5cc(S(=O)(=O)O)cc(NC(=O)c6cccc(Cl)c6Cl)c5c4O)c(Cl)c3)c(O)c12)c1ccc(Cl)cc1Cl` [Compound 30] was “Negative”.
Take `Cc1cc(N=Nc2c(S(=O)(=O)O)cc3cc(S(=O)(=O)O)cc(NC(=O)c4cccc(Cl)c4Cl)c3c2O)c(C)cc1N=Nc1c(S(=O)(=O)O)cc2cc(S(=O)(=O)O)cc(NC(=O)c3ccc(Cl)cc3Cl)c2c1O` [Compound 31]: the “Ames Test result” value in series [1] was “Negative”. Further, in the series on HIV-1 RF (10% FCS), the inhibition at 1.25 µg/mL stood at 0%, the inhibition at 2.5 µg/mL stood at 88% and the inhibition at 5 µg/mL was 100%.
Turning to `COc1cc(N=Nc2c(O)ccc3ccc(S(=O)(=O)O)cc23)c(OC)cc1N=Nc1c(S(=O)(=O)O)cc2cc(S(=O)(=O)O)cc(NC(=O)c3ccc(Cl)cc3Cl)c2c1O` [Compound 34], the “Ames Test result” value in series [1] is reported as “Negative”.
With `COc1cc(N=Nc2c(O)ccc3ccc(S(=O)(=O)O)cc23)c(OC)cc1N=Nc1c(S(=O)(=O)O)cc2cc(S(=O)(=O)O)cc(NC(=O)c3cccc(C(F)(F)F)c3)c2c1O` [Compound 36], the “Ames Test result” value in series [1] is “Negative”.
`COc1cc(N=Nc2c(O)ccc3ccc(S(=O)(=O)O)cc23)c(OC)cc1N=Nc1c(S(=O)(=O)O)cc2cc(S(=O)(=O)O)cc(NC(=O)c3ccc(C#N)cc3)c2c1O` [Compound 37]: the “Ames Test result” value in series [1] was “Negative”.
`COc1cc(N=Nc2c(O)ccc3ccc(S(=O)(=O)O)cc23)c(OC)cc1N=Nc1c(S(=O)(=O)O)cc2cc(S(=O)(=O)O)cc(NC(=O)c3cccc4ccccc34)c2c1O` [Compound 38]: in series [1], the “Ames Test result” value was “Negative”. Moreover, in the series with HIV-1 RF (10% FCS), the inhibition at 1.25 µg/mL turned out to be 99%, the inhibition at 2.5 µg/mL was 99% and the inhibition at 5 µg/mL came to 100%.
`COc1cc(N=Nc2c(O)ccc3ccc(S(=O)(=O)O)cc23)c(OC)cc1N=Nc1c(S(=O)(=O)O)cc2cc(S(=O)(=O)O)cc(NC(=O)c3ccc4ccccc4c3)c2c1O` [Compound 39]: the “Ames Test result” value in series [1] is reported as “Negative”.
Still for that read-out and setting: with `COc1cc(N=Nc2c(O)ccc3ccc(S(=O)(=O)O)cc23)c(OC)cc1N=Nc1c(S(=O)(=O)O)cc2cc(S(=O)(=O)O)cc(NC(=O)c3cccnc3)c2c1O` [Compound 40] the entry was “Negative”; with `COc1cc(N=Nc2c(O)ccc3ccc(S(=O)(=O)O)cc23)c(OC)cc1N=Nc1c(S(=O)(=O)O)cc2cc(S(=O)(=O)O)cc(NC(=O)COc3ccccc3)c2c1O` [Compound 41], “Negative”.
Take `COc1cc(N=Nc2c(O)ccc3ccc(S(=O)(=O)O)cc23)c(OC)cc1N=Nc1c(S(=O)(=O)O)cc2cc(S(=O)(=O)O)cc(NC(=O)Cc3cccc4ccccc34)c2c1O` [Compound 42]: the “Ames Test result” value in series [1] is listed as “Negative”. In addition, in the series on HIV-1 RF (10% FCS), the inhibition at 1.25 µg/mL was determined as 28%, the inhibition at 2.5 µg/mL turned out to be 99% and the inhibition at 5 µg/mL turned out to be 99%.
In the case of `CCC(C)(C)c1ccc(OCC(=O)Nc2cc(S(=O)(=O)O)cc3cc(S(=O)(=O)O)c(N=Nc4cc(OC)c(N=Nc5c(O)ccc6ccc(S(=O)(=O)O)cc56)cc4OC)c(O)c23)c(C(C)(C)CC)c1` [Compound 43], the “Ames Test result” value in series [1] is listed as “Negative”. Further, in the series on HIV-1 RF (10% FCS), the inhibition at 1.25 µg/mL turned out to be 0%, the inhibition at 2.5 µg/mL came out at 0% and the inhibition at 5 µg/mL worked out at 99%.
As for `O=C(Nc1cc(S(=O)(=O)O)cc2cc(S(=O)(=O)O)c(N=Nc3ccc(N=Nc4c(O)ccc5ccc(S(=O)(=O)O)cc45)cc3Cl)c(O)c12)c1ccccc1` [Compound 45], in the series with HIV-1 RF (10% FCS), the inhibition at 1.25 µg/mL was determined as 92%, the inhibition at 2.5 µg/mL came out at 99% and the inhibition at 5 µg/mL turned out to be 99%.
